{"source": "patent US10968188B2", "about": "“Benzothiazol compounds and methods using the same for treating neurodegenerative disorders” (1ST Biotherapeutics, Inc., priority 2017, dated 2021)", "key": {"[1]": {"system": "α-synuclein PFF induced PD mice", "experiment": "Pole test in α-synuclein PFF induced PD mice", "format": "in vivo"}, "[2]": {"system": "Aβ25-35 induced AD mice", "experiment": "Y-maze spontaneous alternation in Aβ25-35 induced AD mice", "format": "in vivo", "conditions": "orally once daily for 10 days; Example 4 1, 3 and 10 mg/kg, nilotinib 3 mg/kg"}, "[3]": {"system": "Aβ25-35 induced AD mice", "experiment": "Step-through passive avoidance (STPA) test in Aβ25-35 induced AD mice", "format": "in vivo", "conditions": "orally once daily for 10 days; Example 4 1, 3 and 10 mg/kg, nilotinib 3 mg/kg"}, "[4]": {"system": "lipid peroxidation", "experiment": "Lipid peroxidation in hippocampus homogenates of Aβ25-35 induced AD mice", "format": "in vivo", "conditions": "once daily oral dosing of 3 mg/kg and 10 mg/kg", "description": "Y-maze test as a behavioral test was used to assess memory function and the willingness of rodents to explore new environments 10 Days after ICV injection of oligomeric Aβ25-35 peptide, the hippocampus was dissected out. And lipid peroxidation level was quantified in the hippocampus homogenates. ICV injection of oligomeric Aβ25-35 peptide induced lipid peroxidation, a marker for oxidative stress. […] (FIG. 7)"}, "[5]": {"experiment": "Oral dose pharmacokinetic study in mice"}}}
{"molecule": "Cc1cn(-c2cc(NC(=O)c3ccc(C)c(Nc4nccc(-c5cccnc5)n4)c3)cc(C(F)(F)F)c2)cn1", "note": "[Nilotinib, nilotinib, reference compound]", "values": [{"measurement": "pole climb down time", "setting": "[1]; 10 mg/kg orally once daily for 5 months", "result": "slight improvement"}, {"measurement": "deficits of alternation behavior (spatial working memory, Y-maze)", "setting": "[2]", "result": "partially alleviated"}]}
{"molecule": "Cc1ccncc1-c1ccc2nc(NC(=O)[C@@H]3C[C@@H]3F)sc2c1", "note": "[Example 4]", "values": [{"measurement": "increased pole climb down time (sec) by α-synuclein PFF injection", "setting": "[1]; 0.3, 1, 3 and 10 mg/kg orally once daily for 5 months", "result": "recovered by treatment of Example 4 in a dose-dependent manner"}, {"measurement": "deficits of alternation behavior (spatial working memory, Y-maze)", "setting": "[2]", "result": "very significantly and fully alleviated"}, {"measurement": "contextual long-term memory deficits (STPA)", "setting": "[3]", "result": "very significantly and fully alleviated"}, {"measurement": "lipid peroxidation in hippocampus", "setting": "[4]", "result": "completely inhibited"}, {"measurement": "PK profile in mice", "setting": "[5]", "result": "good PK profiles"}]}
